The record followed here is ChEMBL document CHEMBL5257109, “Development of actein derivatives as potent anti-triple negative breast cancer agents” (Bioorg Med Chem Lett, 2023).

In general, inhibition refers to the relative decrease from the control value, in per cent. What is called IC50 is the concentration needed to halve the response being measured.

Calls of active or inactive are those of the source. The calls are words filed in the database; no cut-off is given here. Some results are limits rather than exact numbers.

For assay [1], the system named is MDA-MB-231. The experiment in a line: Antiproliferative activity against human MDA-MB-231 cells assessed as inhibition of cell growth at 20 uM incubated for 36 hrs by SRB assay relative to control. It is filed as functional. Background: Sulforhodamine B stains cellular protein and so reports cell mass.
Assay [2] relates to MDA-MB-231. Nature of the assay: Antiproliferative activity against human MDA-MB-231 cells assessed as inhibition of cell growth incubated for 36 hrs by SRB assay. It counts as functional, cell-based. The note with it: for IC50: MDA-MB-231, 36 h.
In assay [3] the test system is HCC1806. Nature of the assay: Antiproliferative activity against human HCC1806 cells assessed as inhibition of cell growth incubated for 36 hrs by SRB assay. It is filed as functional, cell-based. The note with it: for IC50: HCC1806, 36 h.
The subject of assay [4] is HCC1806. The experiment in a line: Antiproliferative activity against human HCC1806 cells assessed as inhibition of cell growth at 20 uM incubated for 36 hrs by SRB assay relative to control. It is filed as functional.

On to `CC(=O)O[C@@H]1[C@@H](OC(C)=O)[C@H](O[C@H]2CC[C@]34C[C@]35CC(=O)[C@]3(C)[C@H]6[C@H](C)C[C@]7(O[C@@H](OC(=O)CCC(=O)O)[C@@]8(C)O[C@@H]78)O[C@H]6C[C@@]3(C)[C@@H]5CC[C@H]4C2(C)C)OC[C@H]1OC(C)=O`, for which the inhibition at 20 µM in assay [1] and in assay [4] was greater than 50% each time. Besides, the half-inhibitory concentration (IC50) in assay [2] was determined as 12.1 µM; in assay [3], 10.7 µM.
For `CC(=O)O[C@@H]1[C@@H](OC(C)=O)[C@H](O[C@H]2CC[C@]34C[C@]35C[C@@H](OC(C)=O)[C@]3(C)[C@H]6[C@H](C)C[C@]7(OC(O)[C@@]8(C)O[C@@H]78)O[C@H]6C[C@@]3(C)[C@@H]5CC[C@H]4C2(C)C)OC[C@H]1OC(C)=O` (stereo partly specified), the inhibition at 20 µM in assay [1] and in assay [4] was greater than 50% throughout. Also, the 50% inhibitory concentration (IC50) in assay [2] is greater than 20 µM; in assay [3], 3.42 µM.
As to `CC(=O)O[C@@H]1O[C@]2(C[C@@H](C)[C@H]3[C@H](C[C@@]4(C)[C@@H]5CC[C@H]6C(C)(C)[C@@H](O[C@@H]7OC[C@@H](O)[C@H](O)[C@H]7O)CC[C@@]67C[C@@]57C[C@@H](OC(C)=O)[C@]34C)O2)[C@@H]2O[C@]12C`, the half-inhibitory concentration (IC50) in assay [2] and in assay [3] was greater than 20 µM in each case.
Regarding `CC(=O)OC1O[C@]2(C[C@@H](C)[C@H]3[C@H](C[C@@]4(C)[C@@H]5CC[C@H]6C(C)(C)[C@@H](O[C@@H]7OC[C@@H](OC(C)=O)[C@H](OC(C)=O)[C@H]7OC(C)=O)CC[C@@]67C[C@@]57CC(=O)[C@]34C)O2)[C@@H]2O[C@]12C` (stereo partly specified), the outcome in assay [2] and in assay [3] was inactive.
Turning to `CC(=O)O[C@@H]1[C@@H](OC(C)=O)[C@H](O[C@H]2CC[C@]34C[C@]35C[C@H](F)[C@]3(C)[C@H]6[C@H](C)C[C@]7(OC(=O)[C@@]8(C)O[C@@H]78)O[C@H]6C[C@@]3(C)[C@@H]5CC[C@H]4C2(C)C)OC[C@H]1OC(C)=O`, the IC50 in assay [2] and in assay [3] was greater than 20 µM throughout.
On to `C[C@@H]1C[C@]2(OC(=O)[C@@]3(C)O[C@@H]23)O[C@H]2C[C@@]3(C)[C@@H]4CC[C@H]5C(C)(C)[C@@H](O[C@@H]6OC[C@@H](O)[C@H](O)[C@H]6O)CC[C@@]56C[C@@]46C[C@H](F)[C@]3(C)[C@@H]12`, for which the half-inhibitory concentration (IC50) in assay [2] and in assay [3] was greater than 20 µM in each case.
Regarding `C[C@@H]1C[C@]2(OC(O)[C@@]3(C)O[C@@H]23)O[C@H]2C[C@@]3(C)[C@@H]4CC[C@H]5C(C)(C)[C@@H](O[C@@H]6OC[C@@H](O)[C@H](O)[C@H]6O)CC[C@@]56C[C@@]46CC(=O)[C@]3(C)[C@@H]12` (stereo partly specified), the IC50 in assay [2] and in assay [3] was greater than 20 µM throughout.
Turning to `CC(=O)O[C@@H]1[C@@H](OC(C)=O)[C@H](O[C@H]2CC[C@]34C[C@]35CC(=O)[C@]3(C)[C@H]6[C@H](C)C[C@]7(OC(OC(=O)c8ccccc8)[C@@]8(C)O[C@@H]78)O[C@H]6C[C@@]3(C)[C@@H]5CC[C@H]4C2(C)C)OC[C@H]1OC(C)=O` (stereo partly specified), the result in assay [2] and in assay [3] was inactive.
Consider `CC(=O)O[C@@H]1C[C@@]23C[C@@]24CC[C@H](O[C@@H]2OC[C@@H](O)[C@H](O)[C@H]2O)C(C)(C)[C@@H]4CC[C@H]3[C@]2(C)C[C@@H]3O[C@]4(C[C@@H](C)[C@@H]3[C@@]12C)O[C@@H](OC(=O)CCC(=O)O)[C@@]1(C)O[C@@H]41`, for which the IC50 in assay [2] and in assay [3] was greater than 20 µM throughout.
On to `CO[C@H]1O[C@]2(C[C@@H](C)[C@H]3[C@H](C[C@@]4(C)[C@@H]5CC[C@H]6C(C)(C)[C@@H](O[C@@H]7OC[C@@H](OC(C)=O)[C@H](OC(C)=O)[C@H]7OC(C)=O)CC[C@@]67C[C@@]57C[C@@H](OC(C)=O)[C@]34C)O2)[C@@H]2O[C@]12C`, for which the IC50 in assay [2] and in assay [3] was greater than 20 µM each time.
As for `C[C@@H]1C[C@]2(OC(O)[C@@]3(C)O[C@@H]23)O[C@H]2C[C@@]3(C)[C@@H]4CC[C@H]5C(C)(C)[C@@H](O[C@@H]6OC[C@@H](O)[C@H](O)[C@H]6O)CC[C@@]56C[C@@]46C[C@@H](O)[C@]3(C)[C@@H]12` (stereo partly specified), the IC50 in assay [2] and in assay [3] was greater than 20 µM throughout.
As for `CC(=O)O[C@@H]1[C@@H](OC(C)=O)[C@H](O[C@H]2CC[C@]34C[C@]35CC(=O)[C@]3(C)[C@H]6[C@H](C)C[C@]7(OC(OC(=O)c8ccccc8F)[C@@]8(C)O[C@@H]78)O[C@H]6C[C@@]3(C)[C@@H]5CC[C@H]4C2(C)C)OC[C@H]1OC(C)=O` (stereo partly specified), the result in assay [2] and in assay [3] was inactive.
On to `COC1O[C@]2(C[C@@H](C)[C@H]3[C@H](C[C@@]4(C)[C@@H]5CC[C@H]6C(C)(C)[C@@H](O[C@@H]7OC[C@@H](O)[C@H](O)[C@H]7O)CC[C@@]67C[C@@]57C[C@@H](OC(C)=O)[C@]34C)O2)[C@@H]2O[C@]12C` (stereo partly specified), for which the IC50 in assay [2] and in assay [3] was greater than 20 µM throughout.
As to `CC(=O)O[C@H]1O[C@]2(C[C@@H](C)[C@H]3[C@H](C[C@@]4(C)[C@@H]5CC[C@H]6C(C)(C)[C@@H](O[C@@H]7OC[C@@H](O)[C@H](O)[C@H]7O)CC[C@@]67C[C@@]57C[C@@H](OC(C)=O)[C@]34C)O2)[C@@H]2O[C@]12C`, the IC50 in assay [2] and in assay [3] was greater than 20 µM throughout.
As to `CC(=O)O[C@@H]1[C@@H](OC(C)=O)[C@H](O[C@H]2CC[C@]34C[C@]35CC(=O)[C@]3(C)[C@H]6[C@H](C)C[C@]7(OC(=O)[C@@]8(C)O[C@@H]78)O[C@H]6C[C@@]3(C)[C@@H]5CC[C@H]4C2(C)C)OC[C@H]1OC(C)=O`, the result in assay [2] and in assay [3] was inactive.
For the molecule `CC(=O)O[C@@H]1C[C@@]23C[C@@]24CC[C@H](O[C@@H]2OC[C@@H](O)[C@H](O)[C@H]2O)C(C)(C)[C@@H]4CC[C@H]3[C@]2(C)C[C@@H]3O[C@]4(C[C@@H](C)[C@@H]3[C@@]12C)OC(=O)[C@@]1(C)O[C@@H]41`, the IC50 in assay [2] and in assay [3] was greater than 20 µM throughout.
Turning to `CC(=O)O[C@@H]1[C@@H](OC(C)=O)[C@H](O[C@H]2CC[C@]34C[C@]35C[C@@H](OC(C)=O)[C@]3(C)[C@H]6[C@H](C)C[C@]7(O[C@H](OC(=O)c8ccc([N+](=O)[O-])cc8)[C@@]8(C)O[C@@H]78)O[C@H]6C[C@@]3(C)[C@@H]5CC[C@H]4C2(C)C)OC[C@H]1OC(C)=O`, the IC50 in assay [2] and in assay [3] was greater than 20 µM each time.
Consider `CC(=O)O[C@@H]1[C@@H](OC(C)=O)[C@H](O[C@H]2CC[C@]34C[C@]35CC(=O)[C@]3(C)[C@H]6[C@H](C)C[C@]7(OC(O)[C@@]8(C)O[C@@H]78)O[C@H]6C[C@@]3(C)[C@@H]5CC[C@H]4C2(C)C)OC[C@H]1OC(C)=O` (stereo partly specified), for which the inhibition at 20 µM in assay [1] and in assay [4] was greater than 50% in each case. For the same molecule, the half-maximal inhibitory concentration (IC50) in assay [2] amounted to 13 µM; in assay [3], 8.8 µM.
For the molecule `CC(=O)O[C@@H]1[C@@H](OC(C)=O)[C@H](O[C@H]2CC[C@]34C[C@]35C[C@@H](OC(C)=O)[C@]3(C)[C@H]6[C@H](C)C[C@]7(O[C@H](OC(=O)c8ccccc8F)[C@@]8(C)O[C@@H]78)O[C@H]6C[C@@]3(C)[C@@H]5CC[C@H]4C2(C)C)OC[C@H]1OC(C)=O`, the concentration for half-maximal inhibition (IC50) in assay [2] and in assay [3] was greater than 20 µM throughout.
As for `CC(=O)O[C@@H]1[C@@H](OC(C)=O)[C@H](O[C@H]2CC[C@]34C[C@]35C[C@@H](OC(C)=O)[C@]3(C)[C@H]6[C@H](C)C[C@]7(O[C@H](OC(=O)/C=C/c8ccc(OC(F)(F)F)cc8)[C@@]8(C)O[C@@H]78)O[C@H]6C[C@@]3(C)[C@@H]5CC[C@H]4C2(C)C)OC[C@H]1OC(C)=O`, the concentration for half-maximal inhibition (IC50) in assay [2] and in assay [3] was greater than 20 µM in each case.
As for `COc1ccc(C(=O)O[C@H]2O[C@]3(C[C@@H](C)[C@H]4[C@H](C[C@@]5(C)[C@@H]6CC[C@H]7C(C)(C)[C@@H](O[C@@H]8OC[C@@H](OC(C)=O)[C@H](OC(C)=O)[C@H]8OC(C)=O)CC[C@@]78C[C@@]68C[C@@H](OC(C)=O)[C@]45C)O3)[C@@H]3O[C@]23C)cc1`, the concentration for half-maximal inhibition (IC50) in assay [2] and in assay [3] was greater than 20 µM throughout.
As to `C[C@@H]1C[C@]2(OC(=O)[C@@]3(C)O[C@@H]23)O[C@H]2C[C@@]3(C)[C@@H]4CC[C@H]5C(C)(C)[C@@H](O[C@@H]6OC[C@@H](O)[C@H](O)[C@H]6O)CC[C@@]56C[C@@]46C=C[C@]3(C)[C@@H]12`, the IC50 in assay [2] and in assay [3] was greater than 20 µM each time.
Turning to `CC(=O)O[C@@H]1[C@@H](OC(C)=O)[C@H](O[C@H]2CC[C@]34C[C@]35C[C@@H](OC(C)=O)[C@]3(C)[C@H]6[C@H](C)C[C@]7(O[C@H](OC(=O)c8ccccc8)[C@@]8(C)O[C@@H]78)O[C@H]6C[C@@]3(C)[C@@H]5CC[C@H]4C2(C)C)OC[C@H]1OC(C)=O`, the concentration for half-maximal inhibition (IC50) in assay [2] and in assay [3] was greater than 20 µM throughout.
`CO[C@@H]1O[C@]2(C[C@@H](C)[C@H]3[C@H](C[C@@]4(C)[C@@H]5CC[C@H]6C(C)(C)[C@@H](O[C@@H]7OC[C@@H](OC(C)=O)[C@H](OC(C)=O)[C@H]7OC(C)=O)CC[C@@]67C[C@@]57C[C@@H](OC(C)=O)[C@]34C)O2)[C@@H]2O[C@]12C`: the IC50 in assay [2] and in assay [3] was greater than 20 µM throughout.
As for `CC(=O)O[C@@H]1[C@@H](OC(C)=O)[C@H](O[C@H]2CC[C@]34C[C@]35C[C@@H](OC(C)=O)[C@]3(C)[C@H]6[C@H](C)C[C@]7(OC(=O)[C@@]8(C)O[C@@H]78)O[C@H]6C[C@@]3(C)[C@@H]5CC[C@H]4C2(C)C)OC[C@H]1OC(C)=O`, the 50% inhibitory concentration (IC50) in assay [2] and in assay [3] was greater than 20 µM in each case.
